Here are results for four compounds from article PMC6279831, “Reconstructing the evolutionary history of F420-dependent dehydrogenases” (Scientific Reports, 2018).

A word on the Km: it is the substrate concentration at which the rate is half of its maximum.

Some results are limits rather than exact numbers.

Experiment [1] has as its system AncD1. The arrangement: steady-state kinetics with 20 uM F420, absorbance decrease at 400 nm, pH 7.5, 25 °C. As to conditions: 20 uM F420, pH 7.5, 25 °C; substrate. How it is done: Sugars (phosphorylated as well as non-phosphorylated) and alcohols were tested as substrates. D-glucose-6-phosphate (G6P) was used as a prototype substrate to initially verify activity. Other 6-phosphorylated sugars tested were: D-fructose-6-phosphate, D-mannose-6-phosphate and D-glucosamine-6-phosphate. D-glucose, D-fructose, D-mannose, D-xylose, D-galactose-1-phosphate, D-glucose-1-phosphate, isopropanol, isobutanol, butanol and cyclohexanol were also tested for activity. Kinetics of all enzymes was measured in a Synergy MX microplate reader (BioTek) using 96-well F-bottom plates (Greiner Bio-One GmbH) at 25 °C. Assays were performed in a volume of 200 µL, containing 20 µM F420, 50–100 nM of enzyme and varying concentrations of the substrates in buffer (50 mM KPi, pH 7.5). Reaction was started by adding 100 µL of enzyme. All measurements were followed at λ = 400 nm for 3 min. The observed rates (kobs) were calculated by using a molecular extinction coefficient of ε400 (F420) = 25.7 mM^−1cm^−1. All experiments were repeated three times.

In a further experiment the target is T1, FGD-Cryar (FSD-Cryar) (Cryptosporangium arvum, UniProt A0A010YY07).
T1 construct: gene CryarDRAFT_1153
Description: fluorescence quenching of FMN (ex […] nm, em […] nm), one-site fit. Type of experiment: binding. As to conditions: read-out: FGD-Noca (FSD-Noca) / kcat [s^-1].

Another experiment has as its target T2, FGD-Noca (FSD-Noca) (Nocardioidaceae bacterium Broad-1, UniProt E9V3D1).
T2 construct: full-length, codon-optimised, expressed in E. coli TOP10 (pBAD) as native protein, no SUMO; purified by anion exchange
Described as above. Type of experiment: binding. Particulars: read-out: FGD-Noca (FSD-Noca) / kcat [s^-1].

Experiment [2] has as its target AncD1. The description is as above. Type of experiment: binding. Particulars: 0.1 µM cofactor, 25 °C; apparent KD; read-out: FGD-Noca (FSD-Noca) / kcat [s^-1].

Take `O=P(O)(O)OC[C@H]1OC(O)[C@H](O)[C@@H](O)[C@@H]1O` (stereo partly drawn) [D-glucose-6-phosphate]: the Km in the experiment with AncD1 [1] was 1 ± 0.19 mM.
Take `O=P(O)(O)OC[C@H]1OC(O)[C@@H](O)[C@@H](O)[C@@H]1O` (stereo partly drawn) [D-mannose-6-phosphate]: in the experiment with AncD1 [1], the Km was 7.2 ± 4.7 mM.
Turning to `Cc1cc2nc3c(=O)[nH]c(=O)nc-3n(C[C@H](O)[C@H](O)[C@H](O)COP(=O)(O)O)c2cc1C` [FMN], the Kd at FGD-Cryar (FSD-Cryar), on FGD-Noca (FSD-Noca) and at AncD1 [2] was greater than 150 µM throughout.
Turning to `O=P(O)(O)OC[C@H]1OC(O)(CO)[C@@H](O)[C@@H]1O` (stereo partly drawn) [D-fructose-6-phosphate], the Km with AncD1 [1] is 45 ± 15 mM.
